Measured values taken from patent US20080207617A1, “Quinoline Derivatives and Quinazoline Derivatives Inhibiting Autophosphrylation of Flt3 and Medicinal Compositions Containing the Same” (KIRIN BEER KABUSHIKI KAISHA, priority 2002, published 2008).
pIC50: −log10 of the molar value. Structures can show the parent of a compound that is named as a salt. Values belong to the compound of their own block, whether it stands above or below them.

How the values were obtained:
MV4-11 = experiment: Cell growth inhibitory test MV4-11 (WST-1); assay type: cell-based, human; conditions: MV4-11 cells, 3 days culture
Description: Pharmacological Test Example 2
Cell Growth Inhibitory Test
MV4-11 (ATCC number: CRL-9591) as human leukemia cells was seeded in an amount of 3×10^3 using a DMEM medium containing 10% fetal calf serum (purchased from GIBCO) in a 96-well flat bottom plate.
(§1) A solution of a test compound in dimethyl sulfoxide was added to each well and was cultured in a 5% carbon dioxide incubator for 3 days. Three days after the initiation of the culture, 10 μl of a WST-1 solution in Cell Counting Kit (purchased from Wako Pure Chemical Industries, Ltd.) was added to each well for a color reaction. After proper color development, the absorbance was measured with a microplate reader under conditions of measurement wavelength 450 nm and reference wavelength 650 nm. The growth ratio for each well was determined by presuming the absorbance without the addition of the medicament to be 100% growth ratio and the absorbance of the well without seeding of the cells to be 0% growth ratio. The concentration of the test compound was varied on several levels, the cell growth ratio for each case was determined, and the concentration of the test compound necessary for inhibiting 50% of cell growth ratio (IC50) was calculated.

MOLM13 [1] = experiment: Cell growth inhibitory activity using MTT method (MOLM13); assay type: cell-based, human; conditions: MOLM13 cells
Description: Pharmacological Test Example 3
Measurement of Cell Growth Inhibitory Activity Using MTT Method
Human leukemia cell line MOLM13 (subdivided from Hayashibara Biochemical Laboratories, Inc.) was cultured in an RPMI medium containing 10% fetal calf serum (purchased from Asahi Techno Glass Corporation) within a 5% carbon dioxide incubator until the cell density reached 50 to 90% of the maximum cell density. These cells were seeded into wells, containing an RPMI medium containing 10% fetal calf serum, in a 96-well flat bottom plate in an amount of […] per well. The amount of the solution of the medium in each well was brought to 100 μl, and a test compound was added thereto to 500 ng, 100 ng, 20 ng, and 4 ng per ml. After culture within an incubator for 72 hr, 10 μl of a 5 mg/ml MTT (3-(4,5-dimethylthiazol-2-yl)-2,5-diphenyl tetrazolium bromide) solution (purchased from SIGMA) was added to the medium, and a reaction was allowed to proceed for 4 hr. Thereafter, 100 μl of a 0.04 N hydrochloric acid-isopropanol solution was added to completely dissolve the resultant MTT formazan crystal. After the dissolution, absorbance at 550 nm was measured using 620 nm as a reference wavelength with a microplate reader (DIGISCAN) (It is regarded that, in the MTT method, the viable cell count is reflected, and linearity is observed in a cell count per well range of 5×10^5 to 2×10^2 cells). After 72 hr, the absorbance of only the medium free from cells was subtracted from the absorbance of the well without the addition of the test compound to determine a value which was presumed to be 100%. On the other hand, the absorbance with the addition of the compound was expressed in terms of % growth.

MOLM13 [2] = experiment: Cell growth inhibitory activities on cultured human leukemia cells MOLM-13 (WST-1); assay type: cell-based; conditions: 3 days culture
Description: Pharmacological Test Example 4
Cell Growth Inhibitory Activities on Cultured Human Leukemia Cells
as §1, with “Human leukemia cells MOLM13 (subdivided from Hayashibara Biochemical Laboratories, Inc.) were seeded in an amount of 3×10^3 using a DMEM medium containing 10% fetal calf serum (purchased from GIBCO) in a 96-well flat bottom plate. A solution” for “A solution”

MOLM13 [3] = experiment: Tumor growth inhibitory activities in nude mice xenograft model inoculated with human leukemia cells MOLM13; assay type: in vivo; conditions: Mus musculus, MOLM-13, po, 216 h; 50 mg/kg orally once a day, day 9; read-out: TGIR (%) (measurement date)
Description: Pharmacological Test Example 5
Tumor Growth Inhibitory Activities in Nude Mice Xenograft Model Inoculated with Human Leukemia Cells
Human leukemia cells MOLM13 (subdivided from Hayashibara Biochemical Laboratories, Inc.) were subcutaneously transplanted into nude mice. […] The test compound suspended or dissolved in 0.5% methylcellulose was orally administered at a dose of 0.1 ml per 10 g body weight once a day for 9 days. For the control group, only vehicle was administered.
The tumor growth inhibition rate (TGIR) was calculated as follows:
The tumor growth inhibition rate (TGIR)=(1−TX/CX)×100
wherein CX represents the volume of tumor at day X for the control group when the tumor volume at the day of the start of the administration (day 1) was presumed to be 1; and TX represents the volume of tumor at day X for test compound administration groups.

Compound: COc1cc2c(Oc3ccc(NC(=O)NCCC(C)(C)C)cc3Cl)ccnc2cc1OCCN1CC(C)OC(C)C1 (centres unmarked) [Compound 70, 1-(3-Chloro-4-{7-[2-(2,6-dimethyl-morpholin-4-yl)-ethoxy]-6-methoxy-quinolin-4-yloxy}-phenyl)-3-(3,3-dimethyl-butyl)-urea]
pIC50 (MV4-11; Homo sapiens, MV4-11, 72 h): 8.70
pIC50 (MOLM13 [1]; Homo sapiens, MOLM-13, 72 h): 7.53
IC50 (MOLM13 [2]; Homo sapiens, MOLM-13, 72 h): 3 nM

Compound: COc1cc2c(Oc3ccc(NC(=O)NCCC(C)(C)C)cc3)ccnc2cc1OCCCN1CCN(C)CC1 [Compound 75, 1-(3,3-Dimethyl-butyl)-3-(4-{6-methoxy-7-[3-(4-methyl-piperazin-1-yl)-propoxy]-quinolin-4-yloxy}-phenyl)-urea hydrochloride]
pIC50 (MV4-11; Homo sapiens, MV4-11, 72 h): > 9.00
IC50 (MOLM13 [2]; Homo sapiens, MOLM-13, 72 h): < 1 nM
inhibition in vivo at 50 mg/kg (MOLM13 [3]): 94.1%

Compound: COc1cc2c(Oc3ccc(NC(=O)NCCC(C)(C)C)c(F)c3)ccnc2cc1OCCCN1CCN(C)CC1 [Compound 76, 1-(3,3-Dimethyl-butyl)-3-(2-fluoro-4-{6-methoxy-7-[3-(4-methyl-piperazin-1-yl)-propoxy]-quinolin-4-yloxy}-phenyl)-urea]
inhibition in vivo at 50 mg/kg (MOLM13 [3]): 34.3%

Compound: COc1cc2c(Oc3ccc(NC(=O)NCCC(C)(C)C)cc3Cl)ccnc2cc1OCCCN1CCN(C)CC1 [Compound 77, 1-(3,3-Dimethyl-butyl)-3-(3-chloro-4-{6-methoxy-7-[3-(4-methyl-piperazin-1-yl)-propoxy]-quinolin-4-yloxy}-phenyl)-urea]
inhibition in vivo at 50 mg/kg (MOLM13 [3]): 70.4%

Results, then the compound that gave them:

pIC50 (MV4-11; Homo sapiens, MV4-11, 72 h): 7.89
pIC50 (MOLM13 [1]; Homo sapiens, MOLM-13, 72 h): 6.71
IC50 (MOLM13 [2]; Homo sapiens, MOLM-13, 72 h): 19 nM
Compound: COc1cc2c(Oc3ccc(NC(=O)NCCC4CCCCC4)c(F)c3)ccnc2cc1OCCN1CCCCC1 [Compound 64, 1-(2-Cyclohexyl-ethyl)-3-{2-fluoro-4-[6-methoxy-7-(2-piperidin-1-yl-ethoxy)-quinolin-4-yloxy]-phenyl}-urea]

pIC50 (MV4-11; Homo sapiens, MV4-11, 72 h): 8.40
pIC50 (MOLM13 [1]; Homo sapiens, MOLM-13, 72 h): 7.61
IC50 (MOLM13 [2]; Homo sapiens, MOLM-13, 72 h): 9 nM
Compound: COc1cc2c(Oc3ccc(NC(=O)NCCC4CCCC4)c(F)c3)ccnc2cc1OCCN1CCCCC1 [Compound 65, 1-(2-Cyclopentyl-ethyl)-3-{2-fluoro-4-[6-methoxy-7-(2-piperidin-1-yl-ethoxy)-quinolin-4-yloxy]-phenyl}-urea]

pIC50 (MV4-11): 8.70
pIC50 (MOLM13 [1]; 72 hr): 7.79
IC50 (MOLM13 [2]): 4 nM
Compound: COc1cc2c(Oc3ccc(NC(=O)NCCC(C)(C)C)c(F)c3)ccnc2cc1OCCN1CCOCC1 [Compound 67, 1-(3,3-Dimethyl-butyl)-3-{2-fluoro-4-[6-methoxy-7-(2-morpholin-4-yl-ethoxy)-quinolin-4-yloxy]-phenyl}-urea]

pIC50 (MV4-11; Homo sapiens, MV4-11, 72 h): > 9.00
pIC50 (MOLM13 [1]; Homo sapiens, MOLM-13, 72 h): 7.88
IC50 (MOLM13 [2]; Homo sapiens, MOLM-13, 72 h): 1 nM
Compound: COc1cc2nccc(Oc3ccc(NC(=O)NCCC(C)(C)C)cc3)c2cc1OCCN1CCOCC1 [Compound 68, 1-(3,3-Dimethyl-butyl)-3-{4-[7-methoxy-6-(2-morpholin-4-yl-ethoxy)-quinolin-4-yloxy]-phenyl}-urea]

pIC50 (MV4-11; Homo sapiens, MV4-11, 72 h): 8.70
pIC50 (MOLM13 [1]; Homo sapiens, MOLM-13, 72 h): 7.75
IC50 (MOLM13 [2]; Homo sapiens, MOLM-13, 72 h): 8 nM
Compound: COc1cc2c(Oc3ccc(NC(=O)NC4CCCC(C)(C)C4)c(F)c3)ccnc2cc1OCCN1CCOCC1 (centres unmarked) [Compound 69, 1-(3,3-Dimethyl-cyclohexyl)-3-{2-fluoro-4-[6-methoxy-7-(2-morpholin-4-yl-ethoxy)-quinolin-4-yloxy]-phenyl}-urea]

pIC50 (MV4-11; Homo sapiens, MV4-11, 72 h): 8.52
pIC50 (MOLM13 [1]; Homo sapiens, MOLM-13, 72 h): 7.26
IC50 (MOLM13 [2]; Homo sapiens, MOLM-13, 72 h): 8 nM
Compound: COc1cc2c(Oc3ccc(NC(=O)NCCC4CCCCC4)c(F)c3)ccnc2cc1OCCN1CCOCC1 [Compound 72, 1-(2-Cyclohexyl-ethyl)-3-{2-fluoro-4-[6-methoxy-7-(2-morpholin-4-yl-ethoxy)-quinolin-4-yloxy]-phenyl}-urea]

pIC50 (MV4-11; Homo sapiens, MV4-11, 72 h): 8.22
pIC50 (MOLM13 [1]; Homo sapiens, MOLM-13, 72 h): 7.67
IC50 (MOLM13 [2]; Homo sapiens, MOLM-13, 72 h): 20 nM
Compound: COc1cc2c(Oc3ccc(NC(=O)NCCC(C)C)c(F)c3)ccnc2cc1OCCN1CCOCC1 [Compound 73, 1-{2-Fluoro-4-[6-methoxy-7-(2-morpholin-4-yl-ethoxy)-quinolin-4-yloxy]-phenyl}-3-(3-methyl-butyl)-urea]
